Test results from patent US9693556B2, “Herbicidal pyridazinone derivatives” (SYNGENTA LIMITED, priority 2011, dated 2017).

Assays:
Format in all cases: in vivo
[1] = test system: Alopecurus myosuroides (ALOMY); assay: Pre-emergence herbicidal glasshouse test on Alopecurus myosuroides; settings: pre-emergence; 1000 g/h; evaluated after 13 days
Method in brief: (§1)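 Scoring scale: 5=80-100%, 4=60-79%, 3=40-59%, 2=20-39%, 1=0-19% damage, assessed on day 13. Compound sprayed at 1000 g/h on soil-grown plants (day 1 pre-, day 8 post-emergence) kept at 24/16 °C, 14 h light.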

Setaria faberi (SETFA) [2] = assay: Pre-emergence herbicidal glasshouse test on Setaria faberi; settings: pre-emergence; 1000 g/h; evaluated after 13 days
Method in brief: as §1

[3] = test system: Echinochloa crus-galli (ECHCG); assay: Pre-emergence herbicidal glasshouse test on Echinochloa crus-galli; settings: pre-emergence; 1000 g/h; evaluated after 13 days
Method in brief: as §1

Solanum nigrum (SOLNI) [4] = assay: Pre-emergence herbicidal glasshouse test on Solanum nigrum; settings: pre-emergence; 1000 g/h; evaluated after 13 days
Method in brief: as §1

[5] = test system: Amaranthus retoflexus (AMARE); assay: Pre-emergence herbicidal glasshouse test on Amaranthus retoflexus; settings: pre-emergence; 1000 g/h; evaluated after 13 days
Experimental: Seeds of a variety of test species are sown in standard soil in pots (Alopecurus myosuroides (ALOMY), Setaria faberi (SETFA), Echinochloa crus-galli (ECHCG), Solanum nigrum (SOLNI), Amaranthus retoflexus (AMARE), Ipomoea hederacea (IPOHE)). After cultivation for one day (pre-emergence) or after 8 days cultivation (post-emergence) under controlled conditions in a glasshouse (at 24/16° C., day/night; 14 hours light; 65% humidity), the plants are sprayed with an aqueous spray solution derived from the formulation of the technical active ingredient in acetone/water (50:50) solution containing 0.5% Tween 20 (polyoxyethelyene sorbitan monolaurate, CAS RN 9005-64-5). Compounds are applied at 1000 g/h. The test plants are then grown in a glasshouse under controlled conditions in a glasshouse (at 24/16° C., day/night; 14 hours light; 65% humidity) and watered twice daily. After 13 days for pre and post-emergence, the test is evaluated for the percentage herbicidal damage caused to the plant. The biological activities are shown in the following table on a five point scale (5=80-100% damage; 4=60-79% damage; 3=40-59% damage; 2=20-39% damage; 1=0-19% damage).

[6] = test system: Ipomoea hederacea (IPOHE); assay: Pre-emergence herbicidal glasshouse test on Ipomoea hederacea; settings: pre-emergence; 1000 g/h; evaluated after 13 days
Method in brief: as §1

[7] = test system: Alopecurus myosuroides (ALOMY); assay: Post-emergence herbicidal glasshouse test on Alopecurus myosuroides; settings: post-emergence; 1000 g/h; evaluated after 13 days
Method in brief: as §1

Setaria faberi (SETFA) [8] = assay: Post-emergence herbicidal glasshouse test on Setaria faberi; settings: post-emergence; 1000 g/h; evaluated after 13 days
Method in brief: as §1

[9] = test system: Echinochloa crus-galli (ECHCG); assay: Post-emergence herbicidal glasshouse test on Echinochloa crus-galli; settings: post-emergence; 1000 g/h; evaluated after 13 days
Method in brief: as §1

Solanum nigrum (SOLNI) [10] = assay: Post-emergence herbicidal glasshouse test on Solanum nigrum; settings: post-emergence; 1000 g/h; evaluated after 13 days
Method in brief: as §1

[11] = test system: Amaranthus retoflexus (AMARE); assay: Post-emergence herbicidal glasshouse test on Amaranthus retoflexus; settings: post-emergence; 1000 g/h; evaluated after 13 days
Method in brief: as §1

[12] = test system: Ipomoea hederacea (IPOHE); assay: Post-emergence herbicidal glasshouse test on Ipomoea hederacea; settings: post-emergence; 1000 g/h; evaluated after 13 days
Method in brief: as §1

CC(C)n1ncc(-c2ccc(C(F)(F)F)cc2S(C)(=O)=O)c(O)c1=O [Compound 1.013]
5 (5=80-100% damage): PRE Application ALOMY herbicidal damage (five point scale) [1] | PRE Application SETFA herbicidal damage (five point scale) (Setaria faberi (SETFA) [2]) | PRE Application ECHCG herbicidal damage (five point scale) [3] | PRE Application SOLNI herbicidal damage (five point scale) (Solanum nigrum (SOLNI) [4]) | PRE Application AMARE herbicidal damage (five point scale) [5] | POST Application ALOMY herbicidal damage (five point scale) [7] | POST Application SETFA herbicidal damage (five point scale) (Setaria faberi (SETFA) [8]) | POST Application ECHCG herbicidal damage (five point scale) [9] | POST Application SOLNI herbicidal damage (five point scale) (Solanum nigrum (SOLNI) [10]) | POST Application AMARE herbicidal damage (five point scale) [11] | POST Application IPOHE herbicidal damage (five point scale) [12]
4 (4=60-79% damage): PRE Application IPOHE herbicidal damage (five point scale) [6]

CC(C)n1ncc(-c2ccc(S(C)(=O)=O)c(C3=NOCC3)c2Cl)c(O)c1=O [Compound 1.014]
5 (5=80-100% damage): PRE Application ALOMY herbicidal damage (five point scale) [1] | PRE Application SETFA herbicidal damage (five point scale) (Setaria faberi (SETFA) [2]) | PRE Application ECHCG herbicidal damage (five point scale) [3] | PRE Application SOLNI herbicidal damage (five point scale) (Solanum nigrum (SOLNI) [4]) | PRE Application AMARE herbicidal damage (five point scale) [5] | POST Application ALOMY herbicidal damage (five point scale) [7] | POST Application SETFA herbicidal damage (five point scale) (Setaria faberi (SETFA) [8]) | POST Application ECHCG herbicidal damage (five point scale) [9] | POST Application SOLNI herbicidal damage (five point scale) (Solanum nigrum (SOLNI) [10]) | POST Application AMARE herbicidal damage (five point scale) [11] | POST Application IPOHE herbicidal damage (five point scale) [12]
2 (2=20-39% damage): PRE Application IPOHE herbicidal damage (five point scale) [6]

CC(C)n1ncc(-c2c(Cl)cccc2Cl)c(O)c1=O [Compound 1.016]
1 (1=0-19% damage): PRE Application ALOMY herbicidal damage (five point scale) [1] | PRE Application SETFA herbicidal damage (five point scale) (Setaria faberi (SETFA) [2]) | PRE Application ECHCG herbicidal damage (five point scale) [3] | PRE Application SOLNI herbicidal damage (five point scale) (Solanum nigrum (SOLNI) [4]) | PRE Application AMARE herbicidal damage (five point scale) [5] | PRE Application IPOHE herbicidal damage (five point scale) [6]
3 (3=40-59% damage): POST Application SETFA herbicidal damage (five point scale) (Setaria faberi (SETFA) [8]) | POST Application SOLNI herbicidal damage (five point scale) (Solanum nigrum (SOLNI) [10])
2 (2=20-39% damage): POST Application ALOMY herbicidal damage (five point scale) [7] | POST Application ECHCG herbicidal damage (five point scale) [9] | POST Application IPOHE herbicidal damage (five point scale) [12]
5 (5=80-100% damage): POST Application AMARE herbicidal damage (five point scale) [11]

Cc1c(-c2cnn(C)c(=O)c2O)ccc(S(C)(=O)=O)c1C1=NOCC1 [Compound 1.018]
5 (5=80-100% damage): PRE Application ECHCG herbicidal damage (five point scale) [3] | PRE Application SOLNI herbicidal damage (five point scale) (Solanum nigrum (SOLNI) [4]) | PRE Application AMARE herbicidal damage (five point scale) [5] | PRE Application IPOHE herbicidal damage (five point scale) [6] | POST Application SETFA herbicidal damage (five point scale) (Setaria faberi (SETFA) [8]) | POST Application ECHCG herbicidal damage (five point scale) [9] | POST Application SOLNI herbicidal damage (five point scale) (Solanum nigrum (SOLNI) [10]) | POST Application AMARE herbicidal damage (five point scale) [11] | POST Application IPOHE herbicidal damage (five point scale) [12]
4 (4=60-79% damage): PRE Application SETFA herbicidal damage (five point scale) (Setaria faberi (SETFA) [2]) | POST Application ALOMY herbicidal damage (five point scale) [7]
2 (2=20-39% damage): PRE Application ALOMY herbicidal damage (five point scale) [1]

Cn1ncc(-c2ccc(S(C)(=O)=O)c(F)c2Cl)c(O)c1=O [Compound 1.021]
5 (5=80-100% damage): PRE Application ECHCG herbicidal damage (five point scale) [3] | PRE Application AMARE herbicidal damage (five point scale) [5] | POST Application ECHCG herbicidal damage (five point scale) [9] | POST Application SOLNI herbicidal damage (five point scale) (Solanum nigrum (SOLNI) [10]) | POST Application AMARE herbicidal damage (five point scale) [11] | POST Application IPOHE herbicidal damage (five point scale) [12]
2 (2=20-39% damage): PRE Application ALOMY herbicidal damage (five point scale) [1] | PRE Application IPOHE herbicidal damage (five point scale) [6]
1 (1=0-19% damage): PRE Application SETFA herbicidal damage (five point scale) (Setaria faberi (SETFA) [2]) | PRE Application SOLNI herbicidal damage (five point scale) (Solanum nigrum (SOLNI) [4]) | POST Application ALOMY herbicidal damage (five point scale) [7] | POST Application SETFA herbicidal damage (five point scale) (Setaria faberi (SETFA) [8])

Cn1ncc(-c2ccccc2C#N)c(O)c1=O [Compound 1.022]
2 (2=20-39% damage): POST Application AMARE herbicidal damage (five point scale) [11]
1 (1=0-19% damage): PRE Application ALOMY herbicidal damage (five point scale) [1] | PRE Application SETFA herbicidal damage (five point scale) (Setaria faberi (SETFA) [2]) | PRE Application ECHCG herbicidal damage (five point scale) [3] | PRE Application SOLNI herbicidal damage (five point scale) (Solanum nigrum (SOLNI) [4]) | PRE Application AMARE herbicidal damage (five point scale) [5] | PRE Application IPOHE herbicidal damage (five point scale) [6] | POST Application ALOMY herbicidal damage (five point scale) [7] | POST Application SETFA herbicidal damage (five point scale) (Setaria faberi (SETFA) [8]) | POST Application ECHCG herbicidal damage (five point scale) [9] | POST Application IPOHE herbicidal damage (five point scale) [12]
3 (3=40-59% damage): POST Application SOLNI herbicidal damage (five point scale) (Solanum nigrum (SOLNI) [10])

Cn1ncc(-n2ccc(-c3ccc(C(F)(F)F)cc3)cc2=O)c(O)c1=O [Compound 1.023]
2 (2=20-39% damage): PRE Application ALOMY herbicidal damage (five point scale) [1] | POST Application ALOMY herbicidal damage (five point scale) [7] | POST Application SOLNI herbicidal damage (five point scale) (Solanum nigrum (SOLNI) [10])
4 (4=60-79% damage): PRE Application SETFA herbicidal damage (five point scale) (Setaria faberi (SETFA) [2]) | POST Application SETFA herbicidal damage (five point scale) (Setaria faberi (SETFA) [8])
1 (1=0-19% damage): PRE Application ECHCG herbicidal damage (five point scale) [3] | PRE Application SOLNI herbicidal damage (five point scale) (Solanum nigrum (SOLNI) [4]) | PRE Application IPOHE herbicidal damage (five point scale) [6] | POST Application ECHCG herbicidal damage (five point scale) [9] | POST Application IPOHE herbicidal damage (five point scale) [12]
5 (5=80-100% damage): PRE Application AMARE herbicidal damage (five point scale) [5]
3 (3=40-59% damage): POST Application AMARE herbicidal damage (five point scale) [11]
